Reference: US7939091B2, “Biorational repellents obtained from terpenoids for use against arthropods” (Iowa State University Research Foundation, Inc., priority 1999, dated 2011)

Columns and labels:
[1] = tested on: northern house mosquito, Culex pipiens; test: Static-air choice-test apparatus, percentage and contact repellency bioassay; format: in vivo; conditions: 15 minutes
Method: A static-air choice-test apparatus as described above was used to determine the behavioral effects on the insects in this study. The apparatus consisted of a 9×60-cm section of glass tubing with a 2-cm hole drilled at the midpoint along the length for central introduction of the insects. All of the testing was conducted in an environmental chamber at 26° C.
Treatments included catnip essential oil, obtained by steam distillation as described herein and in Peterson, et al., J. Econ. Entomol., 2002, 95, 377-380. Osage orange essential oil, obtained by steam distillation of whole fruits previously described in Peterson, et al., J. Essential Oil Res., 2002, 14, 233-236, elemol (Augustus Oils, New Hampshire, England), and DEET (Aldrich, St. Louis, Mo.) test solutions at 1%, 0.5% and 0.1% concentrations (wt/vol). The test solutions' solvent, hexane, served as a control treatment in this assay.
One milliliter of the solution was applied to one half of a 9-cm diameter round filter paper with an area of 63.6 cm^2 and then allowed to dry before testing. […] Treated filter papers were placed inside the lids of 9-cm glass petri dishes, and placed over the ends of the glass tube. The position of the treated side, to the right or to the left, was selected by using a random-number table. Approximately fifteen unmated adult female mosquitoes were anaesthetized with CO2 and then introduced to the 9×60-cm glass cylinder through the centered 2-cm hole. Timing began two minutes after mosquito introduction, and mosquito distribution inside the static-air choice-test apparatus was observed over a 180-minute period for each treatment. Mosquito distribution (number of individuals on treated and untreated side) was recorded at 15, 30, 60, 90, 120, and 180-minute timepoints.
The data generated by this study was used to examine two measures of mosquito repellency, percentage repellency and contact repellency. Percentage repellency was calculated for with the following formula: Percentage Repellency=((Number of Individuals on Untreated Half-Number of Individuals on Treated Half)/15)×100.
Contact repellency was defined in this assay as 100% avoidance of the treated filter paper (no contact). 15, 30, 60, 90, 120, and 180-minute time-points were used to assess contact repellency for individual observations.
The experimental design was a completely randomized design using three replications of each treatment. Analysis of variance was performed on SAS (PROC GLM; SAS Version 8) to identify significant differences of percentage repellency due to treatment, and concentration. Multiple comparisions were completed using Tukey's procedure. Treatment pair-wise comparisons of contact repellency, which included data from the six time-points observed for each treatment, were completed using Fishers Exact (PROC FREQ; SAS Version 8).

[2] = tested on: yellow fever mosquitoes, Aedes aegypti; test: Static-air repellency chamber, spatial and contact repellency, adult female yellow fever mosquitoes; format: in vivo; conditions: for long term repellency (in excess of two hours): Table 20, up to 360 min; for Average Percentage Repellency Over Time: application rate 78.6 μg/cm^2
Method: Test Equipment. In this testing, a static air repellency chamber was used. The apparatus consisted of a 9×60-cm section of glass tubing with a 2-cm hole drilled at the midpoint along the length for central introduction of the insects. All of the testing was conducted in an environmental chamber at ambient temperatures.
Test Methods. The data for spatial repellency was collected at 15 minutes after the introduction of female yellow fever mosquitoes into a static air repellency chamber. Data for the contact repellency was collected after three hours. The concentrations used in the tests are 1% solution (1 ml of it on a 9-cm diameter filter paper). One (1) ml of a 1% (wt/vol) solution of repellent substance containing hexane as a carrier was pipetted onto a 9-cm diameter filter paper results in a concentration of 157 μg/cm^2. The solution contained the desired mass of compound to be tested added to the desired volume of hexane, e.g., for a 1% solution of catnip essential oil, […] was added to 100 ml of hexane.
One milliliter of the solution was applied to one half of a 9-cm diameter round filter paper with an area of 63.6 cm^2 and then allowed to dry before testing. […] Treated filter papers were placed inside the lids of 9-cm glass petri dishes, and placed over the ends of the glass tube. The position of the treated side, to the right or to the left, was selected by using a random-number table. Approximately fifteen unmated adult female mosquitoes were anaesthetized with CO2 and then introduced to the 9×60-cm glass cylinder through the centered 2-cm hole. Timing began 2 minutes after mosquito introduction, and mosquito distribution inside the static-air choice-test apparatus was observed over a 15-minute period for each treatment to determine spatial repellency. Basically the number of mosquitoes in the non-treated half were considered to be repelled and were counted. Percent repellency was considered to be: (Number of Individuals on Untreated Half−Number of Individuals on Treated Half)/15)×100. Contact repellency was defined in this assay as 100% avoidance of the treated filter paper-after three hours. The experimental design was a completely randomized design using six replications of each treatment.
All test methods were the same as described in Example 7, except spatial repellency over a longer period.
Test Methods. […] Also only three replications were used instead of six.

[3] = concentration 0.1% (15.7 μg/cm^2)
[4] = concentration 0.5% (78.6 μg/cm^2)

SMILES: C=CC1(C)CCC(C(C)(C)O)CC1C(=C)C (centres unmarked) [Elemol]
- Percentage Repellency [1, 3]: 63.0%
- Percentage Repellency [1, 4]: 81.3%
- Percentage Repellency ([1]; concentration 1% (157 μg/cm^2)): 74.1%
- % repellency ([2]; 78.6 μg/cm^2 (equivalent to a 0.5% solution), determined at 15 minutes, three replications): 38.9%
- Avoidance Frequency ([2]; Conc 1% (157 μg/cm^2), average of mosquito contact repellency over 3-hour time period): 97
- Repellency (%) (15-minute spatial repellency) ([2]; Conc 1% (157 μg/cm^2), determined at 15 minutes, six replications): 63.6%
- long term repellency (in excess of two hours) [2]: long term repellency
- Average Percentage Repellency Over Time ([2]; 60 min): 52%
- Average Percentage Repellency Over Time ([2]; 120 min): 43%
- Average Percentage Repellency Over Time ([2]; 360 min): 35%
- Average Percentage Repellency Over Time ([2]; Initial): 56%
- spatial and contact repellency over a 6-hour time period ([2]; other data from our lab, 6-hour time period): good spatial and very good contact repellents

SMILES: CCN(CC)C(=O)c1cccc(C)c1 [DEET, N,N-diethyl-3-methylbenzamide, reference compound]
- Percentage Repellency [1, 3]: 59.3%
- Percentage Repellency [1, 4]: 62.3%
- Percentage Repellency ([1]; concentration 1% (157 μg/cm^2)): 44.4%
- long term repellency (in excess of two hours) [2]: long term repellency
- Average Percentage Repellency Over Time ([2]; 60 min): 64%
- Average Percentage Repellency Over Time ([2]; 120 min): 47%
- Average Percentage Repellency Over Time ([2]; 360 min): 49%
- Average Percentage Repellency Over Time ([2]; Initial): 52%
